Patent publication US7897620B2, “Methods of using anti-inflammatory compounds” (Cambridge Enterprise Limited, priority 2007, dated 2011)
pEC50: −log10 of the molar value. Read-outs that look alike come from different tables or passages of the source.

Legend:
[1] = test system: SDF-1α induced THP-1 cell migration; test: ChemoTx transwell migration assay, SDF-1α induced migration of THP-1 cells; type: cell-based; conditions: Homo sapiens, maximal dose of chemoattractant, read-out: ED50 SDF-1α
Method: (§1) In principle, this assay consists of two chambers separated by a porous membrane. The chemoattractant is placed in the lower compartment and the cells are placed in the upper compartment. After incubation for a period at 37° C. the cells move towards the chemoattractant, and the number of cells in the lower compartment is proportional to the chemoattractant activity (relative to a series of controls).
(§2) The THP-1 cell line (European Cell Culture Collection) were used as the leukocyte cell population.
(§3) First, the cell suspension to be placed in the upper compartment is prepared. The THP-1 cells are pelleted by centrifugation (770×g; 4 mins) and washed with Geys Balanced Salt Solution with 1 mg/ml BSA (GBSS+BSA). This wash is then repeated, and the cells repelleted before being resuspended in a small volume of GBSS+BSA for counting, for example using a standard haemocytometer.
(§4) The volume of GBSS+BSA is then adjusted depending on the number of cells present so that the cells are at final density of 4.45×10^6 cells per ml of GBSS+BSA. This ensures that there are […] THP-1 cells in each 25 μl of the solution that will be placed in the upper chamber of the plate.
To test a single compound for its ability to inhibit chemokine induced migration, it is necessary to prepare two lots of cells. The suspension of THP-1 cells at 4.45×10^6 cells/ml is divided into two pots. […]

[2] = test system: MCP-1 induced THP-1 cell migration; test: ChemoTx transwell migration assay, MCP-1 induced migration of THP-1 cells; type: cell-based; conditions: Homo sapiens
Method: as §1, §2, §3, §4
To test a single compound for its ability to inhibit chemokine induced migration, it is necessary to prepare two lots of cells. The suspension of THP-1 cells at 4.45×10^6 cells/ml is divided into two pots. To one pot the inhibitor under test is added at an appropriate final concentration, in an appropriate vehicle (for example at 1 μM in not more than 1% DMSO). To the second pot an equal volume of GBSS+BSA plus vehicle as appropriate (e.g. not more than 1% DMSO) is added to act as a control.
Next, the chemoattractant solution to be placed in the lower compartment is prepared. For example, MCP-1 is diluted in GBSS+BSA to give a final concentration of 25 ng/ml. This is divided into two pots, as for the cell suspension. To one pot, the test compound is added to the same final concentration as was added to the cell suspension, while to the other pot an equal volume of GBSS+BSA plus vehicle as appropriate (e,g. not more than 1% DMSO) is added. Alternatively, other chemokines may be used (SDF-1α at 7.5 ng/ml; RANTES at 50 ng/ml; IL-8 at 10 ng/ml using neutrophils as the target cell population). In each case it is important to determine (in a separate experiment) the concentration of each chemokine which causes maximal stimulation of migration of the chosen target leukocyte population. This maximal concentration must then be used in experiments to test the inhibitory activity of the compounds of the invention.
Once the chemoattractant solutions for the lower wells and cell solutions for the upper chambers have been prepared, the migration chamber should be assembled. Place 29 μl of the appropriate chemoattractant solution into the lower well of the chamber. Assays should be performed with at least triplicate determinations of each condition. Once all the lower chambers have been filled, apply the porous membrane to the chamber in accordance with the manufacturer's instructions. Finally, apply 25 μl of the appropriate cell solution to each upper chamber. A plastic lid is placed over the entire apparatus to prevent evaporation.
The assembled chamber is incubated at 37° C., 5% CO2, for 2 hours. A suspension of cells in GBSS+BSA is also incubated under identical conditions in a tube: these cells will be used to construct a standard curve for determining the number of cells that have migrated to the lower chamber under each condition.
At the end of the incubation, the liquid cell suspension is gently removed from the upper chamber, and 20 μl of ice-cold 20 mM EDTA in PBS is added to the upper chamber, and the apparatus is incubated at 4° C. for 15 mins. This procedure causes any cells adhering to the underside of the membrane to fall into the lower chamber.
After this incubation the filter is carefully flushed with GBSS+BSA to wash off the EDTA, and then the filter is removed. […]

[3] = Pharmacokinetics following a single dose in dog (crossover iv / per os); type: in vivo; conditions: plasma; for Vd: read-out: Vss
Method: In a separate experiment, (I′) was compared with the second best compound (V) for pharmacokinetic parameters in a different (non-rodent) species, the dog. Single doses (1 mg/kg in 5% DMSO intravenously or 3 mg/kg in 1% CMC per os) were administered to a single dog for each compound in a simple crossover design with 1 week washout between the two routes of administration.

[4] = Distribution of compounds into tissues and unchanged parent in urine 24 hrs after a single oral dose; type: in vivo; conditions: rat; for concentration at 24 h: 24 hrs after single oral dose 3 mg/kg in 1% CMC, nd = not detected, LLOQ 2.4 ng/g
Method: Urine was collected from rats exposed to a single oral dose (3 mg/kg in 1% CMC) of each compound over a 24 hour period in metabolic cages. The pooled urine sample was then subjected to full scan mass spectral analysis, using the same LC-MS conditions as described in example 1 above. Further MS-MS analysis of the product ions was then performed, and likely fragmentations/re-arrangements assigned from the publicly available Metabolite ID database.
To provide a quantitative estimate of the degree of metabolism suffered by each of the compounds tested, the amount of unchanged parent compound in urine was measured using the same validated LC-MS assay described in example 1, using (S)-3-(2′,2′-dimethylpropanoylamino)-caprolactam as an internal standard. In addition, the level of compounds in various target tissues was also determined.

[5] = THP-1 cells, maximal dose of chemoattractant, read-out: ED50 MCP-1
[6] = THP-1 migration inhibition, Table 5, read-out: Functional ED50 versus MCP-1

SMILES	pEC50 [1]	pEC50 [2, 5]	pEC50 [2, 6]	clearance ([3]; Intravenous PK (1 mg/kg))	half-life ([3]; Intravenous PK (1 mg/kg))	Vd ([3]; Intravenous PK (1 mg/kg))	AUC ([3]; Oral PK (3 mg/kg))	Tmax ([3]; Oral PK (3 mg/kg))	bioavailability ([3]; Oral PK (3 mg/kg))	half-life ([3]; Oral PK (3 mg/kg))	concentration at 24 h ([4]; brain, read-out: Level of compound in Brain)	concentration at 24 h ([4]; heart, read-out: Level of compound in Heart)	concentration at 24 h ([4]; kidney, read-out: Level of compound in Kidney)	concentration at 24 h ([4]; liver, read-out: Level of compound in Liver)	concentration at 24 h ([4]; lung, read-out: Level of compound in Lung)	concentration at 24 h ([4]; muscle, read-out: Level of compound in Muscle)	fraction of the injected dose recovered unchanged in urine ([4]; 24 hrs, single oral dose 3 mg/kg)
O=C1NCCCC[C@@H]1NC(=O)C12CC3CC(CC(C3)C1)C2 [(II), 3-(adamantane-1-carbonylamino)-caprolactam]	10.00	10.10	10.10	–	–	–	–	–	–	–	–	–	–	–	–	–	–
O=C1NCCCC[C@@H]1NC(=O)C12CC3CC(CC(O)(C3)C1)C2 [(V), 3-(3′-hydroxyadamantyl-1-carbonylamino)-caprolactam]	9.70	–	–	7.4 mL/min/kg	1.1 h	0.6 L/kg	4000 ng·h/mL	1 h	59%	1.12 h	–	–	–	–	–	–	–
CC(C)(C)C(=O)N[C@H]1CCCNC1=O [Compound (I′), 3-(2′,2′-dimethylpropanoylamino)-tetrahydropyridin-2-one]	–	–	–	1.9 mL/min/kg	3.93 h	0.6 L/kg	20200 ng·h/mL	1 h	75%	3.62 h	1.6 ng/g	5.3 ng/g	5.1 ng/g	3.6 ng/g	21.9 ng/g	3.1 ng/g	–
CC(C)(C)S(=O)(=O)N[C@H]1CCCCNC1=O [(IV), 3-(1′,1′-dimethylethylsulfonylamino)-caprolactam]	–	9.10	9.10	–	–	–	–	–	–	–	–	–	–	–	–	–	less than 10%
